{"source": "paper PMC4853715", "about": "“Design, Synthesis and Antitumor Activity of Novel link-bridge and B-Ring Modified Combretastatin A-4 (CA-4) Analogues as Potent Antitubulin Agents” (Scientific Reports, 2016)", "key": {"A549": {"tested_on": "A549", "test": "MTT assay, antiproliferative activity", "assay_type": "cell-based", "conditions": "Homo sapiens, 48 h, ± SD", "description": "(§1) The in vitro anticancer activities of the prepared compounds against HepG2, Hela, MCF-7, A549, HT-29 and SSC-4 cell lines were evaluated as described in the literature. Target tumor cells were grown to log phase in DMEM medium supplemented with 10% fetal bovine serum. After reaching a dilution of 1 × 10^5 cells Ml^−1 with the medium, 100 μL of the obtained cell suspension was added to each well of 96-well culture plates. Subsequently, incubation was performed at 37 °C in 5% CO2 atmosphere for 12 h before the cytotoxicity assessment. Tested samples at preset concentrations were added to 6 wells with CA-4 being employed as a positive reference. After 48 h exposure period, 25 μL of PBS containing 2.5 mg mL^−1 of MTT (Sigma, USA) was added to each well. After 4 h, the medium was replaced by 150 μL DMSO to dissolve the purple formazan crystals produced. The absorbance at 570 nm of each well was measured with Synergy™ 2 Multi-Mode Microplate Reader. Cell viability (%) was calculated using the following equation: cell viability (%) = (Atreatment/Acontrol) × 100%. The data represented the mean of three independent experiments in triplicate and were expressed as means ± SD."}, "HepG2": {"tested_on": "HepG2", "test": "MTT assay, antiproliferative activity", "assay_type": "cell-based", "conditions": "Homo sapiens, 48 h, ± SD", "description": "as §1"}, "MCF-7": {"tested_on": "MCF-7", "test": "MTT assay, antiproliferative activity", "assay_type": "cell-based", "conditions": "Homo sapiens, MCF7; MCF-7, MTT, 48 h, ± SD", "description": "as §1"}, "SSC-4": {"tested_on": "SSC-4", "test": "MTT assay, antiproliferative activity", "assay_type": "cell-based", "conditions": "Homo sapiens; SSC-4, MTT, 48 h, ± SD", "description": "as §1"}, "Bovine brain tubulin": {"tested_on": "Bovine brain tubulin", "test": "Effects on tubulin polymerization (turbidimetric assembly)", "assay_type": "biochemical", "conditions": "10 μM tubulin, 30 °C, 20 min incubation; read-out: Tubulin inhibition IC50", "description": "Bovine brain tubulin was purified as described previously. To evaluate the effect of the compounds on tubulin assembly in vitro, compounds of varying concentrations were preincubated with 10 μM tubulin in glutamate buffer at 30 °C and then cooled to 0 °C. After addition of GTP, the mixtures were transferred to 0 °C cuvettes in a recording BioTek Synergy 4 multifunction microplate spectrophotometer and warmed up to 30 °C and the assembly of tubulin was observed turbidimetrically (TU660, USA)."}, "A549 cells [1]": {"tested_on": "A549 cells", "test": "Apoptosis assay, Annexin V-FITC/PI flow cytometry", "assay_type": "cell-based, human", "conditions": "A549, 0.8 μM", "description": "The percentages of apoptotic cells were estimated by staining with Annexin-V-FITC and with a PI Apoptosis Detection Kit (KGA105, Keygen biotech, China) according to the manufacturer’s instructions with some modifications. In brief, collected cells were washed once with PBS and subsequently washed once with binding buffer, and then stained with Annexin V-FITC and propidium iodide (PI) in the binding buffer for 20 min at room temperature in the dark. Apoptotic cells were quantified using a […] plotting at least 10,000 events per sample. To quantify the data, the frequencies in all quadrants were analyzed using flowjo 7.6.1 software. Both early apoptotic (Annexin V-positive, PI-negative) and late apoptotic (double positive of Annexin V and PI) cells were detected."}, "A549 cells [2]": {"tested_on": "A549 cells", "test": "Detection of intracellular ROS (DCFH-DA flow cytometry)", "assay_type": "cell-based, human", "conditions": "A549, versus control cells and positive control", "description": "Intracellular ROS production was measured by use of active oxygen species assay kit (K0111, Beyotime, China). […] After 30 min of incubation in the darkness, cells were washed with DMEM for three times, and then fluorescent intensity was measured by the flow cytometer with excitation and emission wavelengths of 488 and 525 nm, respectively."}, "[3]": {"tested_on": "interphase microtubules of A549 cells", "test": "Confocal microscopy assay of microtubule morphology", "assay_type": "cell-based, human", "conditions": "A549, 1.0 μM, 48 h", "description": "After incubating for 48 h, A549 cells were washed with PBS for three times and fixed with 4% paraformaldehyde for 20 min, permeabilized with cold methanol for another 10 min. After that, the cells were blocked with 5% BSA for 1 h. Subsequently, the cells were washed with PBS, and incubated with anti-tubulin antibody in 3% BSA (1:200 Cytoskeleton, Inc.) overnight at 4 °C. After being washed with PBS for three times, each cover slip was added 200 μL of Cy3-labeled goat anti-mouse IgG (H + L) in 3% BSA (1:500, Cytoskeleton, Inc.) and incubated for 1 h at room temperature. At last, A549 cells was stained with 200 μL of DAPI for 5 min and observed under an confocal microscope (Olympus, USA)."}}, "data": [{"molecule": "COc1cc(/C=N/NC(=O)c2cn(Cc3ccccc3)c3ccccc23)cc(OC)c1OC", "note": "[Compound 7]", "values": [{"measurement": "IC50", "setting": "A549", "value": "80 ± 10", "unit": "nM"}, {"measurement": "IC50", "setting": "HepG2", "value": "630 ± 120", "unit": "nM"}, {"measurement": "IC50", "setting": "MCF-7", "value": "640 ± 110", "unit": "nM"}, {"measurement": "IC50", "setting": "SSC-4", "value": "35600 ± 1910", "unit": "nM"}, {"measurement": "IC50", "setting": "Bovine brain tubulin", "value": 4460, "unit": "nM"}, {"measurement": "early apoptosis (Q3)", "setting": "A549 cells [1]; 12 h", "value": 1.84, "unit": "%"}, {"measurement": "total percentage of early and late apoptotic cells", "setting": "A549 cells [1]; 24 h", "value": 33.05, "unit": "%"}, {"measurement": "total percentage of early and late apoptotic cells", "setting": "A549 cells [1]; 48 h", "value": 77.2, "unit": "%"}, {"measurement": "intracellular ROS production", "setting": "A549 cells [2]", "value": "induced the production of significant amounts of ROS"}, {"measurement": "microtubule morphology", "setting": "[3]", "value": "disorganized interphase microtubules"}]}]}
